Key:
[1] = biological target: T1, Y2 receptor (Homo sapiens, UniProt P49146); assay: Y2 receptor binding assay ([125I]PYY, membrane protein); conditions: [125I]PYY, membrane protein; read-out: hNPY2 IC50
T1 sequence (P49146 1-381): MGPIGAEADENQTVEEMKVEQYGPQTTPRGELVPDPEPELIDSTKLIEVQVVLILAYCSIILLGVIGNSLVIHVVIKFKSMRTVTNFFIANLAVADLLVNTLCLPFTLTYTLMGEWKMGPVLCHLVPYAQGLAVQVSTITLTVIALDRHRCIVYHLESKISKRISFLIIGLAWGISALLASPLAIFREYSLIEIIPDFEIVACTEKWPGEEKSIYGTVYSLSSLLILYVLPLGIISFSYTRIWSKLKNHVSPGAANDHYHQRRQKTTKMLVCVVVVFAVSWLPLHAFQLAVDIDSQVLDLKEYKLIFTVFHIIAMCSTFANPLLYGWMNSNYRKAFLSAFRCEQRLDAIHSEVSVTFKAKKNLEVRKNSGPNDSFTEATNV
In short: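 Filtration binding with membrane protein and drug dilution, 2 h at room temperature with mixing, radioactivity counted by gamma or scintillation. Y2: 25 pM [125I]PYY in Krebs-Ringer bicarbonate pH 7.4 with 0.01% BSA, nonspecific by 1 μM NPY. Y4/PP1: 50 pM [125I]hPP in HEPES-buffered saline pH 7.4 with protease inhibitors and 0.3% BSA, nonspecific by 1 μM hPP.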

[2] = biological target: human Y4/PP1 receptor (Homo sapiens, UniProt P50391); assay: Human Y4/PP1 receptor binding assay ([125I]human PP, membrane protein); conditions: [125I]human PP, membrane protein; read-out: hNPY4 IC50
Experimental: B. Human Y2 and Y4/PP1 Receptor Binding Assays
Binding assays were performed on GF/C Millipore 96-well plates pretreated with 0.02% polyethylenimine. The binding buffer for rat Y2 binding is Krebs-Ringer bicarbonate (pH 7.4) containing 0.01% BSA and 0.005% bacitracin. Samples consist of membrane protein, 25 pM [1251]PYY and drug dilution. Nonspecific binding is defined by 1 μM NPY. The binding buffer for human Y4/PP1 binding consists of 137 mM NaCl, 5.4 mM KCl, 0.44 mM KH2PO4, 1.26 mM CaCl2, 0.81 mM MgSO4, 20 mM HEPES, 1 mM dithiothreitol, 0.1% bacitracin, 100 mg/l streptomycin sulfate, 1 mg/l aprotinin, 10 mg/ml soybean trypsin inhibitor and 0.3% BSA, pH 7.4. Samples consist of membrane protein, 50 pM human [1251]human PP (hPP: NEN DuPont, Boston, Mass.) and drug dilution. 1 μM hPP is used to define nonspecific binding.
After a 2 hour incubation at room temperature with constant mixing, the samples are aspirated on a vacuum manifold, and rinsed with ice-cold binding buffer. The amount of radioactivity in each well is quantitated with either gamma counting or liquid scintillation.

[3] = biological target: T2, Human NPY5 receptor (Homo sapiens, UniProt Q15761); assay: Human NPY5 receptor binding assay ([125I]PYY, membrane protein); conditions: [125I]PYY, read-out: hNPY5 IC50
T2 sequence (Q15761 1-445): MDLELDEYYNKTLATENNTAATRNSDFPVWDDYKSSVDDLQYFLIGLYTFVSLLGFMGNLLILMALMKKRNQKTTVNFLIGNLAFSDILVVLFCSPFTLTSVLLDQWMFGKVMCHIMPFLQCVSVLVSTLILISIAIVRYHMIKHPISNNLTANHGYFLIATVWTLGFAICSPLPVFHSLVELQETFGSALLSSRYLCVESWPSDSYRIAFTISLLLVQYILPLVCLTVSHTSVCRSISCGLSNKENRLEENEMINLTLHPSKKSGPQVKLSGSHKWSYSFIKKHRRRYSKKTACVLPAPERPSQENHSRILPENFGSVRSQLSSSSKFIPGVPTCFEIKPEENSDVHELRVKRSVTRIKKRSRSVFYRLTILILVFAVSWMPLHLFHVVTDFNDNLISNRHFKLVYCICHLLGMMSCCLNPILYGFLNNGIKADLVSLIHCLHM
In short: (§1)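 Membrane protein incubated 2 h at room temperature with 75-100 pM porcine [125I]PYY and compound in pH 7.4 Tris buffer with salts, 0.1% BSA and bacitracin. Nonspecific binding with 1 μM PYY. Filtration, then gamma or scintillation counting.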

[4] = biological target: T3, Rat NPY5 receptor (Rattus norvegicus, UniProt Q63634); assay: Rat NPY5 receptor binding assay ([125I]PYY, membrane protein); conditions: [125I]PYY, read-out: rNPY5 IC50
T3 sequence (Q63634 1-445): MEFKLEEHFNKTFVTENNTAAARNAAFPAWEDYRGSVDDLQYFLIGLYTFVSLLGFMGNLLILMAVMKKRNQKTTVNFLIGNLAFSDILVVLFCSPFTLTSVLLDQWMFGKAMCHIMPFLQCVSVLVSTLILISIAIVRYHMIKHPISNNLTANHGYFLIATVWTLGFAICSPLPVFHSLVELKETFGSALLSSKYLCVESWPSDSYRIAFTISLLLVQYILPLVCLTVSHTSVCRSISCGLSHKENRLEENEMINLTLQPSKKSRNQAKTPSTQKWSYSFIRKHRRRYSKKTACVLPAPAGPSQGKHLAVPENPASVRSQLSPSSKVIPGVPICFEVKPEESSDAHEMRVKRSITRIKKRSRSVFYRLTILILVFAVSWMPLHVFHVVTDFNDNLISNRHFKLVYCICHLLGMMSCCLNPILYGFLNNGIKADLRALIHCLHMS
In short: as §1

[5] = biological target: T4, Human NPY1 receptor (Homo sapiens, UniProt P25929); assay: Human NPY1 receptor binding assay ([125I]PYY, SK-N-MC cells); conditions: [125I]PYY, SK-N-MC cells; read-out: hNPYI IC50
T4 construct: host or cells: SK-N-MC cells
T4 sequence (P25929 1-384): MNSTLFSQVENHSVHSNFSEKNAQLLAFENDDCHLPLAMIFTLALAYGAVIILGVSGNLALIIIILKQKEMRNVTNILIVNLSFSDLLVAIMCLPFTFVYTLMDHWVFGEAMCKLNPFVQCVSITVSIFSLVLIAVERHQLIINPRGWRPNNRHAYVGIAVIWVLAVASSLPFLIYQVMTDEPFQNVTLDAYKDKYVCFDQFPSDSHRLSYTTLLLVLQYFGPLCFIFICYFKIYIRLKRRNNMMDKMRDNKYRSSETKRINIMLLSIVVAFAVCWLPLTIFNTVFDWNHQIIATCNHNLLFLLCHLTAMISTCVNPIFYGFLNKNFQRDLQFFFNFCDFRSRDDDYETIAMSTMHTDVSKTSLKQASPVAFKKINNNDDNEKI
Experimental: A. Human NPY1 Receptor Binding Assay
This is a modification of Gordon et al., (J. Neurochem. 55:506-513, 1990). SK-N-MC cell (ATCC, Rockville, Md.) were plated in 24-well plates. Once confluent, cells were rinsed with Dulbecco's phosphate buffered saline (DPBS). Cells were then preincubated in binding buffer containing serum-free DMEM, 25 mM HEPES (pH 7.3), 0.5% bovine serum albumin (BSA), 0.1% bacitracin and 0.1 mM phenylmethylsulfonylfluoride for 30 minutes at room temperature. Drug dilution and [125I]PYY (˜50 pM: NEN-DuPont) were added to the wells, and the cells were incubated for an additional 3 hours at room temperature, followed by rinsing with ice-cold DPBS. Nonspecific binding was defined with 1 μM NPY. After lysing the cells with 1% Triton X-100, the amount of radioactivity in the lysates was quantitated with a gamma counter.

Chain of human Y4/PP1 receptor (P50391 whole entry): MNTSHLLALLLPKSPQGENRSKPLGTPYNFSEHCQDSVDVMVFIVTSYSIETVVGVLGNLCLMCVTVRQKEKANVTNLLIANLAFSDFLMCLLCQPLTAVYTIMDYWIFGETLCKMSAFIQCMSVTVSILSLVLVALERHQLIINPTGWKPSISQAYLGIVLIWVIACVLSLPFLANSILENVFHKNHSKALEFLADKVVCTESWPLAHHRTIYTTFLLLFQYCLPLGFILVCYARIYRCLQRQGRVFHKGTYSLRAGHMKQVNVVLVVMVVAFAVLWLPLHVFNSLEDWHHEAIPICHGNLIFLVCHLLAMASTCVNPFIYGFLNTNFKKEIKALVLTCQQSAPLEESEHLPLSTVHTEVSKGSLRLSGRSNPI

melting point	IC50 [1]	IC50 [2]	IC50 [3]	IC50 [4]	IC50 [5]	Molecule
177 to 178 °C						O.O=C(CN1CCC(n2c(=O)[nH]c3ccccc32)CC1)Nc1ccc(-c2cnco2)cc1 (hydrate or solvate) [Compound 267, N-(4-Oxazol-5-yl-phenyl)-2-[4-(2-oxo-2,3-dihydro-benzoimidazol-1-yl)-piperidin-1-yl]-acetamide; hydrate]
179 to 180 °C	> 5 µM	> 5 µM				O=C(CN1CCC(n2c(=O)[nH]c3ccccc32)CC1)NCC1CCCO1 (stereo not shown) [Compound 285, 2-[4-(2-Oxo-2,3-dihydro-benzoimidazol-1-yl)-piperidin-1-yl]-N-(tetrahydro-furan-2-ylmethyl)-acetamide]
67 to 68 °C						CC(C)OCCCNC(=O)CN1CCC(n2c(=O)[nH]c3ccccc32)CC1 [Compound 289, N-(3-Isopropoxy-propyl)-2-[4-(2-oxo-2,3-dihydro-benzoimidazol-1-yl)-piperidin-1-yl]-acetamide]
158 °C	> 5 µM	> 5 µM				Cl.O=C(CN1CCC(n2c(=O)[nH]c3ccccc32)CC1)N1CCCCCCC1 [Compound 305, 1-[1-(2-Azocan-1-yl-2-oxo-ethyl)-piperidin-4-yl]-1,3-dihydro-benzoimidazol-2-one; hydrochloride]
204 °C	> 5 µM	> 5 µM				Cl.O=C(CN1CCC(n2c(=O)[nH]c3ccccc32)CC1)Nc1cccc2c1C(=O)c1ccccc1-2 [Compound 307, 2-[4-(2-Oxo-2,3-dihydro-benzoimidazol-1-yl)-piperidin-1-yl]-N-(9-oxo-9H-fluoren-1-yl)-acetamide; hydrochloride]
166 °C	> 5 µM	> 5 µM				O=C(CN1CCC(n2c(=O)[nH]c3ccccc32)CC1)N1CCCCCC1 [Compound 309, 1-[1-(2-Azepan-1-yl-2-oxo-ethyl)-piperidin-4-yl]-1,3-dihydro-benzoimidazol-2-one]
	> 5 µM	> 5 µM	0.58 µM	0.979 µM	> 5 µM	CC(=O)Nc1ccc(NC(=O)CN2CCC(n3c(=O)[nH]c4ccccc43)CC2)cc1 [Compound 351, N-(4-Acetylamino-phenyl)-2-[4-(2-oxo-2,3-dihydro-benzoimidazol 1-yl)-piperidin-1-yl]-acetamide, reference compound]
	> 5 µM	> 5 µM	0.135 µM	0.187 µM	> 5 µM	CN(C)c1ccc(NC(=O)CN2CCC(n3c(=O)[nH]c4ccccc43)CC2)cc1 [Compound 353, N-(4-Dimethylamino-phenyl)-2-[4-(2-oxo-2,3-dihydro-benzoimidazol-1-yl)-piperidin-1-yl]acetamide, reference compound]
	> 5 µM	> 5 µM	0.2 µM	0.19 µM	> 5 µM	O=C(CN1CCC(n2c(=O)[nH]c3ccccc32)CC1)Nc1ccc([N+](=O)[O-])cc1 [Compound 355, N-(4-Nitro-phenyl)-2-[4-(2-oxo-2,3-dihyro-benzoimidazol-1-yl)-piperidin-1-yl]-acetamide, reference compound]
	> 5 µM	> 5 µM	0.73 µM	0.443 µM	> 5 µM	O=C(CN1CCC(n2c(=O)[nH]c3ccccc32)CC1)Nc1ccc(Cl)cc1 [Compound 358, N-(4-Chloro-phenyl)-2-[4-(2-oxo-2,3-dihydro-benzoimidazol-1-yl)-piperidin-1-yl]-acetamide, reference compound]
	> 5 µM	> 5 µM	0.055 µM	0.0562 µM	> 5 µM	COC(=O)c1ccc(NC(=O)CN2CCC(n3c(=O)[nH]c4ccccc43)CC2)cc1 [Compound 360, 4-(2-[4-(2-Oxo-2,3-dihydro-benzoimidazol-1-yl)-piperidin-1-yl]-acetylamino)-benzoic acid methyl ester, reference compound]
	> 5 µM	> 5 µM	0.41 µM	0.539 µM	> 5 µM	COc1ccc(NC(=O)CN2CCC(n3c(=O)[nH]c4ccccc43)CC2)cc1 [Compound 361, N-(4-Methoxy-phenyl)-2-[4-(2-oxo-2,3-dihydro-benzoimidazol-1-yl)-piperidin-1-yl]-acetamide, reference compound]
	> 5 µM	> 5 µM	0.034 µM	0.031 µM	> 5 µM	N-(2-Amino-4-propylsulfnyl-phenyl)-2-[4-(2-oxo-2,3-dihydro-benzoimidazol-1-yl)-pipendin-1-yl]-acetamide; compound with GENERIC INORGANIC NEUTRAL COMPONENT [Compound 339, reference compound]

Molecule	melting point	IC50 [1]	IC50 [2]	IC50 [3]	IC50 [4]	IC50 [5]
O=C(CN1CCC(n2c(=O)[nH]c3ccccc32)CC1)NC1CCCC1.O=C(O)C(=O)O [Compound 288, N-Cyclopentyl-2-[4-(2-oxo-2,3-dihydro-benzoimidazol-1-yl)-piperidin-1-yl]-acetamide; compound with oxalic acid]	217 to 218 °C	> 5 µM	> 5 µM			

Source: patent US6410792B1, “Amide derivatives and methods for using the same as selective neuropeptide Y receptor antagonists” (Bayer Corporation, priority 1997, dated 2002)
